Structures can show the parent of a compound that is named as a salt.

The subject of assay [1] is BALB/cJRj mice. Nature of the assay: Novelty suppressed feeding (NSF), acute anxiolytic-like effect. The note with it: male BALB/cJRj; i.p. 45 min before testing; RS67333 1.5, diazepam 1.5, fluoxetine 18 mg/kg. The format is in vivo. The procedure: (§1) RS67333 (1.5 mg/kg, i.p.), diazepam (1.5 mg/kg, i.p.), fluoxetine (18 mg/kg, i.p.) were injected 45 min before testing in the Elevated Plus Maze (EPM), the Novelty Suppressed Feeding (NSF) or the Open Field (OF) in three independent cohorts of male BALB/cJRj mice.
(§2) To ensure the selectivity of the anxiolytic-like effects of RS67333, in a new cohort of male BALB/cJRj mice, GR125487 (1.0 mg/kg, i.p.) dissolved in 0.9% NaCl solution, was injected 15 minutes before RS67333 administration (1.5 mg/kg, i.p.). EPM or NSF occurred 45 min after RS67333 administration (A-S1). Behavioral consequences of the co-administration of GR125487+RS67333 were compared to RS67333 alone, diazepam (1.5 mg/kg, i.p.) fluoxetine (18 mg/kg, i.p.) and vehicle groups (0.9% saline solution, i.p.).
(§3) For mPFC drug infusion, two bilateral cannulae (75 μm-diameter silica capillary tubing inserted in 27G stainless steel catheter) were implanted in the mPFC [stereotaxic coordinates in mm from bregma: A=+2.10, L=±0.50, V=−2.60, A, anterior; L, lateral; and V, ventral, according to (A-S10)] under anesthesia (chloral hydrate, 400 mg/kg, i.p.). […] Diazepam (1.5 mg/kg) was used as a positive control.
The NSF is a conflict test that elicits competing motivations: the drive to eat and the fear of venturing into the center of a brightly lit arena. The latency to begin eating is used as an index of anxiety/depression-like behavior, because classical anxiolytic drugs as well as chronic antidepressants decrease this measure. The NSF test was carried out during a 10 min period as previously described (A-S12). Briefly, the testing apparatus consisted of a plastic box (50×50×20 cm), the floor of which was covered with approximately 2 cm of wooden bedding. Twenty-four hours prior to behavioral testing, all food was removed from the home cage. At the time of testing, a single pellet of food (regular chow) was placed on a white paper platform positioned in the center of the box. Each animal was placed in a corner of the box, and a stopwatch was immediately started. The latency to eat (defined as the mouse sitting on its haunches and biting the pellet with the use of forepaws) was timed. Immediately afterwards, the animal was transferred to its home cage, and the amount of food consumed by the mouse in the subsequent 5 min was measured, serving as a control for change in appetite as a possible confounding factor.

The test system of assay [2] is BALB/cJRj mice. Briefly: Elevated plus maze (EPM), acute anxiolytic-like effect. It counts as in vivo. The note with it: acute systemic administration; fluoxetine 18 mg/kg i.p. The procedure:
as §1, §2, §3
In a new cohort of male BALB/cJRj mice, p-CPA was administered twice daily (at 0900 and 1700 h) for 3 consecutive days. RS67333 ([…]) and diazepam ([…]) were then intra-mPFC administered 24 h after the final p-CPA administration and behavioral test (EPM) occurred 45 minutes after local infusion.
The EPM is a widely used behavioral assay for rodents and it has been validated to assess the anti-anxiety effects of pharmacological agents (A-S11). This test was performed as described by (A-S1). The maze is a plus-cross-shaped apparatus, with two open arms and two arms closed by walls linked by a central platform 50 cm above the floor. Mice were individually put in the center of the maze facing an open arm and were allowed to explore the maze during 5 min for the behavioral consequences of an acute systemic administration or mPFC infusion and during 6 min for the optogenetic experiments. The time spent in and the numbers of entries into the open arms were used as an anxiety index. All parameters were measured using a videotracker (EPM3C, Bioseb, Vitrolles, France).

For the next assay, the system named is C57BL/6NTac mice. Briefly: Elevated plus maze (EPM) in CORT model. The format is in vivo. The note with it: male C57BL/6NTac, Flx 18 mg/kg/day or RS-67,333 1.5 mg/kg/day for 3 weeks prior to CORT. The procedure:
This chronic CORT elevation dysregulates the hypothalamic-pituitary-adrenal axis (HPA) in a manner similar to that observed in clinical depression. The dose and duration of CORT treatment was selected based on previous studies. CORT (35 μg/ml, equivalent to about 5 mg/kg/day) dissolved in 0.45% hydroxypropyl-o-cyclodextrin (0-CD) or vehicle (VEH) (0.45% j-CD) was available ad libitum in the drinking water in opaque bottles to protect it from light. VEH- and CORT-treated water was changed every 3 days to prevent possible degradation. Contextual Fear Conditioning (CFC): A 3-shock CFC procedure was administered as previously published. Briefly, mice were placed into context A and administered 3 2-s shocks (0.75 mA) at 180 s, 240 s or 300 s following placement into context A. Mice were removed from the context 15 s following the termination of shock (at 317 s). For context retrieval, mice were placed back into context A for 300 s. Electrophysiology: Electrophysiology was conducted as previously described. Statistical Analysis: Results from data analyses are expressed as means±SEM. Alpha was set to 0.05 for all analyses. Data were analyzed using GraphPad Prism v7.0 or v8.0. For all experiments, unless otherwise noted, one- or two-way ANOVAs with repeated-measures were applied to the data as appropriate. Significant main effects and/or interactions were followed by Fisher's PLSD post hoc analysis or unpaired t-tests. Drugs: All drugs were prepared in physiological saline and all injections were administered intraperitoneally (i.p.) in volumes of 0.1 cc per […] body weight unless otherwise noted. Fluoxetine hydrochloride (Flx): Flx (BioTrend Chemicals AG, BG197, Zurich, Germany) was administered in the drinking water (18 mg/kg/day) for 3 weeks before the start of CORT. […] (R,S)-ketamine (K): (R,S)-ketamine (Ketaset III, Ketamine HCl injection, Fort Dodge Animal Health, Fort Dodge, Iowa) was administered in a single dose at 30 mg/kg of body weight 1 week before the start of CFC. […] PF-04995274: PF-04995274 (Sigma, Catalog No. 1331782-27-4, St. Louis, Mo.) was administered a single dose at 3 or 10 mg/kg of body weight 1 week before the start of CFC. PF-04995274 was dissolved in saline using an ultrasonic homogenizer (BioLogics, Model 3000, Manassas, Va.). Osmotic minipump implantation: ALZET osmotic minipumps (Model 2004, […], 28 days) were implanted subcutaneously under isoflurane anesthesia as previously described [S2]. Osmotic minipumps were rotated under the skin two to three times per week. Behavioral Assays: All experiments were approved by the Institutional Animal Care and Use Committee (IACUC) at the New York Psychiatric Institute (NYSPI). […] Videos were scored using ANY-maze behavior tracking software (Stoelting, Wood Dale, Ill.). […]

A short description of assay [3]: Chronic corticosterone (CORT) model: body weight. It counts as in vivo, mice. As to conditions: male C57BL/6NTac; Flx 18 mg/kg/day in drinking water or RS-67,333 1.5 mg/kg/day in osmotic minipumps for 3 weeks prior to CORT. The procedure: This chronic CORT elevation dysregulates the hypothalamic-pituitary-adrenal axis (HPA) in a manner similar to that observed in clinical depression. The dose and duration of CORT treatment was selected based on previous studies. CORT (35 μg/ml, equivalent to about 5 mg/kg/day) dissolved in 0.45% hydroxypropyl-o-cyclodextrin (0-CD) or vehicle (VEH) (0.45% j-CD) was available ad libitum in the drinking water in opaque bottles to protect it from light. VEH- and CORT-treated water was changed every 3 days to prevent possible degradation. Contextual Fear Conditioning (CFC): A 3-shock CFC procedure was administered as previously published. Briefly, mice were placed into context A and administered 3 2-s shocks (0.75 mA) at 180 s, 240 s or 300 s following placement into context A. Mice were removed from the context 15 s following the termination of shock (at 317 s). For context retrieval, mice were placed back into context A for 300 s. Electrophysiology: Electrophysiology was conducted as previously described. Statistical Analysis: Results from data analyses are expressed as means±SEM. Alpha was set to 0.05 for all analyses. Data were analyzed using GraphPad Prism v7.0 or v8.0. For all experiments, unless otherwise noted, one- or two-way ANOVAs with repeated-measures were applied to the data as appropriate. […] Videos were scored using ANY-maze behavior tracking software (Stoelting, Wood Dale, Ill.). […]

Consider `CNCCC(Oc1ccc(C(F)(F)F)cc1)c1ccccc1` (centres unmarked) [fluoxetine, Fluoxetine hydrochloride], for which the “latency to feed (NSF) vs vehicle” value in the assay on BALB/cJRj mice [1] is “anxiogenic-like effect”. The anxiety-like behavior result in the assay on BALB/cJRj mice [2] is reported as “did not affect anxiety-like behavior”. Moreover, the “time spent in the open arms of the EPM vs VEH+Veh” value in the assay with C57BL/6NTac mice is on record as “did not alter”. The “entries into the open arms of the EPM vs CORT+Veh” value in the assay on C57BL/6NTac mice (listed as Flx, hydrochloride) is reported as “significantly more entries”. For the same compound, the “CORT-induced increase in body weight” value in assay [3] is on record as “attenuated”.

These data come from patent publication US20220031684A1, “PROPHYLACTIC EFFICACY OF SEROTONIN 4 RECEPTOR AGONISTS AGAINST STRESS” (THE TRUSTEES OF COLUMBIA UNIVERSITY IN THE CITY OF NEW YORK, priority 2019, published 2022).
